Assay results published in the supplement of paper PMC11208160.

Experiment: recombinant barcode read abundance after kanamycin selection (control-corrected) (log10(CPM+1)); higher = more efficient recombination; sequences stand for … in AGTGCAGAGAAAATCGGCCAGTTTTCTCTGCCTGCAGTCCGCATGCCGT…AGATTTATGCAGCGGACTGCCTTTCTCCCAAAGTGATAAACCGGACAGTATCATGGACCGGTTTTCCCGGTAATCCGTATTTGCAAGGTTGGTTTCACT; site = the 11-nt target
Procedure, shortened: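 This pooled E. coli screen matched targets with IS621 bridge RNA target-binding loops. Plating was done in duplicate on chloramphenicol/ampicillin LB agar as a control and on chloramphenicol/ampicillin/kanamycin plus 0.1 mM IPTG. Recombination efficiency reflects barcode counts at recombinant junctions as counts per million, averaged and control-corrected. The figures are log10(CPM+1).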
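Further: IS621 recombinase and bridge RNA in Escherichia coli cells.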

Compared with “ATGGGCCCTTGGGTTCTAACCTGTTGCTG (site ATGGGCCCTAA)”, “ATGGGCCCTTGGGTTCTAACCTGTTGCTG (site ATGGGCCCTCA)” is higher in “recombinant barcode read abundance (log10)” value: 0.13 for the first, 2.97 for the second.

Compared with “ATGGGCCCTTGGGTTCTAACCTGTTGCTG (site ATGGGCCCTGA)”, “ATGGGCCCTTGGGTTCTAACCTGTTGCTG (site ATGGGCCCTTA)” is higher in “recombinant barcode read abundance (log10)” value: 0.127 for the first, 0.511 for the second.

First: ATGGGGTCTTGGGTTCTAACCTGTTGCTT (site AAGGGGTCTAA)
Second: ATGGGGTCTTGGGTTCTAACCTGTTGCTT (site ATGGGGTCTAA)
The “recombinant barcode read abundance (log10)” value of the first is lower: 0.223 for the first, 1.73 for the second.

Going from “ATGGGTCCTTGGGTTCTAACCTGTTGCCG (site ATAGGTCCTCA)” to “ATGGGTCCTTGGGTTCTAACCTGTTGCCG (site ATGGGTCCTCG)”, the “recombinant barcode read abundance (log10)” value rises from 0.536 to 2.21.

Going from “ATGGTCACTTGGGTTCTAACCTGTTGCCT (site AAGGTCACTAG)” to “ATGGTCACTTGGGTTCTAACCTGTTGCCT (site ACGGTCACTAG)”, the “recombinant barcode read abundance (log10)” value rises from 0.354 to 1.18.

Compared with “ATGGTCACTTGGGTTCTAACCTGTTGCCT (site AGGGTCACTAG)”, “ATGGTCACTTGGGTTCTAACCTGTTGCCT (site ATGGTCACTAG)” is higher in “recombinant barcode read abundance (log10)” value: 0.0805 for the first, 2.54 for the second.

Going from “ATGGTGTCTTGGGTTCTAACCTGTTGCCT (site ATGGTGACTAG)” to “ATGGTGTCTTGGGTTCTAACCTGTTGCCT (site ATGGTGCCTAG)”, the “recombinant barcode read abundance (log10)” value rises from 0.109 to 0.768.

Going from “ATGGTGTCTTGGGTTCTAACCTGTTGCCT (site ATGGTGGCTAG)” to “ATGGTGTCTTGGGTTCTAACCTGTTGCCT (site ATGGTGTCTAG)”, the “recombinant barcode read abundance (log10)” value rises from 0.0539 to 2.75.

Compared with “ATGTACACTTGGGTTCTAACCTGTTGCCT (site ATGGATACTAG)”, “ATGTACACTTGGGTTCTAACCTGTTGCCT (site ATGTACACTAG)” is higher in “recombinant barcode read abundance (log10)” value: 0.0684 for the first, 1.55 for the second.

First: ATGTAGTCTTGGGTTCTAACCTGTTGCCT (site ATGTAGTCTAG)
Second: ATGTAGTCTTGGGTTCTAACCTGTTGCCT (site TTGTCGTCTAG)
The “recombinant barcode read abundance (log10)” value of the first is higher: 1.89 for the first, 0.24 for the second.

Going from “ATGTCCTCTTGGGTTCTAACCTGTTGCCT (site ATGACCTCTAG)” to “ATGTCCTCTTGGGTTCTAACCTGTTGCCT (site ATGCCCTCTAG)”, the “recombinant barcode read abundance (log10)” value rises from 0.145 to 0.872.

First: ATGTCCTCTTGGGTTCTAACCTGTTGCCT (site ATGGCCTCTAG)
Second: ATGTCCTCTTGGGTTCTAACCTGTTGCCT (site ATGTCCTCTAG)
The “recombinant barcode read abundance (log10)” value of the first is lower: 0.276 for the first, 1.5 for the second.

First: ATGTCTGCTTGGGTTCTAACCTGTTGCCT (site ATGTCTGCTAG)
Second: ATGTCTGCTTGGGTTCTAACCTGTTGCCT (site GATGGACCTTA)
The “recombinant barcode read abundance (log10)” value of the first is higher: 0.475 for the first, 0.0105 for the second.

Going from “ATGTGAACTTGGGTTCTAACCTGTTGCTG (site ATGTGAACTCA)” to “ATGTGAACTTGGGTTCTAACCTGTTGCTG (site GCAGCCTCTAC)”, the “recombinant barcode read abundance (log10)” value falls from 1.02 to 0.0648.

“ATGTGCTCTTGGGTTCTAACCTGTTGCCT (site AAGTGCTCTAG)” and “ATGTGCTCTTGGGTTCTAACCTGTTGCCT (site ACGTGCTCTAG)” are within 0.2 log units of each other in “recombinant barcode read abundance (log10)” value: 0.204 for the first, 0.253 for the second.

Going from “ATGTGCTCTTGGGTTCTAACCTGTTGCCT (site AGGTGCTCTAG)” to “ATGTGCTCTTGGGTTCTAACCTGTTGCCT (site ATGTGCTCTAG)”, the “recombinant barcode read abundance (log10)” value rises from 0.22 to 2.07.

Compared with “ATGTTAGCTTGGGTTCTAACCTGTTGCCT (site ATGTAGGCTAG)”, “ATGTTAGCTTGGGTTCTAACCTGTTGCCT (site ATGTTAGCTAG)” is higher in “recombinant barcode read abundance (log10)” value: 0.208 for the first, 1.65 for the second.

Going from “ATTCGAGCTTGGGTTCTAACCTGTTGCAT (site ATTCGAGCTAT)” to “ATTCGAGCTTGGGTTCTAACCTGTTGCAT (site CGGGCGTCTTA)”, the “recombinant barcode read abundance (log10)” value falls from 1.18 to 0.203.

“ATTCGGCCTTGGGTTCTAACCTGTTGCCT (site AGTCGGCCTAG)” and “ATTCGGCCTTGGGTTCTAACCTGTTGCCT (site ATTCGGCCTAG)” are within 0.2 log units of each other in “recombinant barcode read abundance (log10)” value: 0.038 for the first, 0.0683 for the second.

First: ATTGCTCCTTGGGTTCTAACCTGTTGCCT (site ATTGCTCCTAG)
Second: ATTGCTCCTTGGGTTCTAACCTGTTGCCT (site ATTGGTCCTAT)
The “recombinant barcode read abundance (log10)” value of the first is higher: 0.416 for the first, 0.126 for the second.

First: ATTGCTCCTTGGGTTCTAACCTGTTGCTT (site ATTGCTCCTAA)
Second: ATTGCTCCTTGGGTTCTAACCTGTTGCTT (site GGTGCTCCTAA)
The “recombinant barcode read abundance (log10)” value of the first is lower: 0.106 for the first, 0.722 for the second.

Compared with “ATTGGTCCTTGGGTTCTAACCTGTTGCCT (site ATAGGTCCTAG)”, “ATTGGTCCTTGGGTTCTAACCTGTTGCCT (site ATCGGTCCTAG)” is lower in “recombinant barcode read abundance (log10)” value: 0.994 for the first, 0.27 for the second.

Compared with “ATTGGTCCTTGGGTTCTAACCTGTTGCCT (site ATGGGTCCTAG)”, “ATTGGTCCTTGGGTTCTAACCTGTTGCCT (site ATTGGTCCTAG)” is higher in “recombinant barcode read abundance (log10)” value: 0.187 for the first, 1.66 for the second.

“ATTGGTTCTTGGGTTCTAACCTGTTGCCT (site ATTGGATCTAG)” and “ATTGGTTCTTGGGTTCTAACCTGTTGCCT (site ATTGGCTCTAG)” are within 0.2 log units of each other in “recombinant barcode read abundance (log10)” value: 0.114 for the first, 0.104 for the second.

First: ATTGGTTCTTGGGTTCTAACCTGTTGCCT (site ATTGGGTCTAG)
Second: ATTGGTTCTTGGGTTCTAACCTGTTGCCT (site ATTGGTTCTAG)
The “recombinant barcode read abundance (log10)” value of the first is lower: 0.0515 for the first, 1.22 for the second.

“ATTTGAACTTGGGTTCTAACCTGTTGCCT (site ATTTGAACTAG)” and “ATTTGAACTTGGGTTCTAACCTGTTGCCT (site ATTTGCACTAG)” are within 0.2 log units of each other in “recombinant barcode read abundance (log10)” value: 0.086 for the first, 0.0882 for the second.

“ATTTGAACTTGGGTTCTAACCTGTTGCCT (site ATTTGGACTAG)” and “ATTTGAACTTGGGTTCTAACCTGTTGCCT (site ATTTGTACTAG)” are within 0.2 log units of each other in “recombinant barcode read abundance (log10)” value: 0.148 for the first, 0.101 for the second.

First: ATTTGACCTTGGGTTCTAACCTGTTGCCG (site ACTTGACCTCT)
Second: ATTTGACCTTGGGTTCTAACCTGTTGCCG (site ATTTGACCTCG)
The “recombinant barcode read abundance (log10)” value of the first is lower: 0.205 for the first, 0.67 for the second.

Compared with “ATTTGAGCTTGGGTTCTAACCTGTTGCTG (site ATTTGAGCTCA)”, “ATTTGAGCTTGGGTTCTAACCTGTTGCTG (site GTATGAGCTCA)” is lower in “recombinant barcode read abundance (log10)” value: 0.732 for the first, 0.0966 for the second.

Going from “CAAAAGGCTTGGGTTCTAACCTGTTGCCG (site CAAAAGGCTCG)” to “CAAAAGGCTTGGGTTCTAACCTGTTGCCG (site GTGTCCTCTAC)”, the “recombinant barcode read abundance (log10)” value falls from 1.18 to 0.239.

Compared with “CAAACACCTTGGGTTCTAACCTGTTGCTT (site CAAACACCTAA)”, “CAAACACCTTGGGTTCTAACCTGTTGCTT (site CAACCACCTAA)” is lower in “recombinant barcode read abundance (log10)” value: 0.712 for the first, 0.0879 for the second.

Going from “CAAACACCTTGGGTTCTAACCTGTTGCTT (site CAAGCACCTAA)” to “CAAACACCTTGGGTTCTAACCTGTTGCTT (site CAATCACCTAA)”, the “recombinant barcode read abundance (log10)” value rises from 0.0323 to 0.426.

Compared with “CAAACCTCTTGGGTTCTAACCTGTTGCAC (site CAAACCTCTGT)”, “CAAACCTCTTGGGTTCTAACCTGTTGCAC (site TCTTAGACTTC)” is lower in “recombinant barcode read abundance (log10)” value: 1.97 for the first, 0.0456 for the second.

Compared with “CAAAGCCCTTGGGTTCTAACCTGTTGCCT (site CAAAGCCCTAG)”, “CAAAGCCCTTGGGTTCTAACCTGTTGCCT (site CGGAGCCCTAG)” is lower in “recombinant barcode read abundance (log10)” value: 1.9 for the first, 0.349 for the second.

Going from “CAACCGACTTGGGTTCTAACCTGTTGCCT (site CAACCGACTAG)” to “CAACCGACTTGGGTTCTAACCTGTTGCCT (site CAACCGCCTAG)”, the “recombinant barcode read abundance (log10)” value falls from 1.61 to 0.265.

“CAACCGACTTGGGTTCTAACCTGTTGCCT (site CAACCGGCTAG)” and “CAACCGACTTGGGTTCTAACCTGTTGCCT (site CAACCGTCTAG)” are within 0.2 log units of each other in “recombinant barcode read abundance (log10)” value: 0.0866 for the first, 0.0239 for the second.

Going from “CAACCGCCTTGGGTTCTAACCTGTTGCCT (site CAACCGACTAG)” to “CAACCGCCTTGGGTTCTAACCTGTTGCCT (site CAACCGCCTAG)”, the “recombinant barcode read abundance (log10)” value rises from 0.411 to 1.43.

Compared with “CAACCGCCTTGGGTTCTAACCTGTTGCCT (site CAACCGGCTAG)”, “CAACCGCCTTGGGTTCTAACCTGTTGCCT (site CAACCGTCTAG)” is higher in “recombinant barcode read abundance (log10)” value: 0.402 for the first, 0.864 for the second.

Going from “CAACCTACTTGGGTTCTAACCTGTTGCCT (site CAACCTACTAG)” to “CAACCTACTTGGGTTCTAACCTGTTGCCT (site CAATCTACTAG)”, the “recombinant barcode read abundance (log10)” value falls from 0.586 to 0.121.

Going from “CAACTTCCTTGGGTTCTAACCTGTTGCGT (site CAACTTCCTAC)” to “CAACTTCCTTGGGTTCTAACCTGTTGCGT (site CGGCTTCCTAC)”, the “recombinant barcode read abundance (log10)” value falls from 1.18 to 0.496.

“CAAGACGCTTGGGTTCTAACCTGTTGCCT (site CAAGACGCTAG)” and “CAAGACGCTTGGGTTCTAACCTGTTGCCT (site CTAGACGCTAG)” are within 0.2 log units of each other in “recombinant barcode read abundance (log10)” value: 1.4 for the first, 1.34 for the second.

Compared with “CAAGATGCTTGGGTTCTAACCTGTTGCCT (site CAAGATGCTAG)”, “CAAGATGCTTGGGTTCTAACCTGTTGCCT (site CACGATGCTAG)” is lower in “recombinant barcode read abundance (log10)” value: 1.21 for the first, 0.304 for the second.

“CAAGATGCTTGGGTTCTAACCTGTTGCCT (site CAGGATGCTAG)” and “CAAGATGCTTGGGTTCTAACCTGTTGCCT (site CATGATGCTAG)” are within 0.2 log units of each other in “recombinant barcode read abundance (log10)” value: 0.222 for the first, 0.366 for the second.
